Experiments:
[1] = simple remineralization test system (hydroxyapatite, soluble calcium by OCPC method); conditions: for remineralization effect (FIG. 12): final concentration of 0.1%
Source text: These conditions for easy remineralization are simplified as follows: in a system including hydroxyapatite, calcium and phosphorus are supplied for crystallization and soluble calcium is reduced; and in a system including no hydroxyapatite, phosphorus and calcium are not deposited and the high solubility thereof is maintained. Therefore, the magnitudes of the solubility of calcium in the two systems were compared to examine the remineralization effect. These simple test systems will be described below. […] For this method, there are the following constraints: a long time required for evaluation; a high-level experimental technique required; etc. Therefore, there is a demand for a simple evaluation system capable of quickly capturing changes in dentin mineral concentrations. Remineralization in an early dental caries lesion in the enamel of teeth is considered to develop via the following two processes:
This method comprises the steps of: (A) precipitating calcium in a solution containing phosphorus, calcium, and tooth components in the presence of the sample; (B) measuring a calcium concentration in the solution or the amount of the precipitated calcium after the precipitation; (C) precipitating calcium in the solution in the absence of the sample; (D) measuring a calcium concentration in the solution or the amount of the precipitated calcium after the precipitation; and (E) comparing calcium concentrations or the amounts of the precipitated calcium in steps (B) and (D). In a preferred embodiment, the above-described solution may contain hydroxyapatite, a buffer, KH2PO4 and CaCl2. The “tooth component” to be contained in the above-described solution is any material that precipitates phosphorus and calcium to produce hydroxyapatite due to remineralization. Use of hydroxyapatite is preferable. Alternatively, teeth of mammals such as a bovine, and sections or fractions thereof may be used. When the solution for calcium precipitation is prepared, the sequence of addition of the above-described phosphorus, calcium, and the other tooth components is not limited. Preferably, first the sample, then, phosphorus, calcium chloride solution, and the tooth component suspension or deionized water are added in this order to prepare the solution. The pH of the solution is preferably adjusted after the addition of KH2PO4. Calcium precipitation typically occurs by incubation at room temperature for ten and several hours to several days (preferably 10 hours to 7 days, more preferably 18 hours to 42 hours). The calcium solubility of the solution can be measured by any procedure known to those skilled in the art. The calcium solubility of the solution may be measured by OCPC method (using calcium C test Wako manufactured by Wako Pure Chemicals). Alternatively, the amount of precipitated calcium in the solution can be measured. The amount of precipitated calcium in the solution may be measured by any procedure known to those skilled in the art. The calcium solubility of the solution may be measured by any procedure known to those skilled in the art. Examples of such a method include the ICP method (Inductive Coupled Plasma method), atomic absorption analysis and an ion electrode method.
In order to examine the remineralization phenomenon in a more simple manner, conditions under which remineralization occurs more easily were simplified. In a system including hydroxyapatite, calcium and phosphorus are supplied for crystallization and soluble calcium is reduced. In contrast, in a system including no hydroxyapatite, calcium and phosphorus are not precipitated so that the solubility thereof is held at a high level. Based on these facts, the following test system was designed.

[2] = prior art; cited from earlier work
[3] = remineralization test system using bovine tooth pieces (Example 3)
Protocol: The remineralization effect of a buffering agent may be examined by a known method, such as a remineralization test system using bovine tooth sections which is described in Inaba. D et al., Eur. J. Sci. 105:74-80, 1997; Inaba. D et al., J. Dent. Health. 47:67-74, 1997; and Iijima. Y et al., Dental Caries Research. 33:206-213, 1999.
This experiment was conducted basically in accordance with Inaba. D et al., Eur. J. Sci. 105:74-80, 1997; Inaba. D et al., J. Dent. Helth. 47:67-74, 1997; and Iijima. Y et al., Caries Research. 33:206-213, 1999.
Tooth pieces used in the experiment were prepared as follows: cubic bovine tooth pieces 3 mm per side were placed so that the enamel surfaces thereof are up. The pieces were covered with composite resin except for the enamel surfaces. The enamel was treated with wet abrasives and paper. Demineralization was conducted as follows: the tooth pieces were immersed in 1% lactate gel (pH 5.0) containing 6% carboxymethylcellulose gel at 37° C. for 3 weeks. Remineralization was conducted as follows: the tooth pieces subjected to demineralization were immersed in 20 mM 2-[4-(2-hydroxyethyl)]-1-piperidinylethane sulfonate (HEPES) buffer (pH 7.0) containing 1.5 mM CaCl2 and 0.9 mM KH2PO4 at 37° C. for one week.
After each treatment, a 200 μm-thick section was prepared from each treated tooth piece, and the mineral concentration distribution thereof was analyzed from the microradiographic images (not shown). […]
After each treatment, the calcium and phosphorus concentrations of the post-remineralization solution were also analyzed. The solution was centrifuged at 10,000 g for two minutes, and the supernatant was analyzed. The phosphorus concentration was determined by molybdic acid method (“Shin-ban Bunseki Kagaku Jikken [New Edition Analyical Chemistry Experiment] (1st ed.), pp. 313-314, published by Kagaku Dojin K. K.), and the calcium concentration was determined by OCPC method (manufactured by Wako Pure Chemicals: measured by a “calcium C test Wako” kit).

[4] = simple remineralization test system (hydroxyapatite, soluble calcium by OCPC method); conditions: 37° C., 8 days
S. mutans strain 8148 = assay: effect on fermentation of sucrose (pH of bacterial cell suspension); assay type: cell-based; conditions: 0.684% sugar added to 20% bacterial cell suspension; after 10 minutes
Protocol: S. mutans strain 8148 was incubated in 1,000 ml of brain heart infusion medium (manufactured by DIFCO Corporation) at 37° C. for 14 hours. Thereafter, the bacteria were collected by centrifugation at 6,000 rpm for 20 minutes. The bacteria was washed with phosphate buffered saline (PBS, pH 7.2), and suspended in the same PBS to 40% (v/v). To measure the pH, a reaction mixture (250 μl) was made of 125 μl of 40% bacterial cell suspension, 62.5 μl of 80 mM sucrose, and 62.5 μl of an aqueous solution containing various oligosaccharides (5% phosphorylated oligosaccharide sodium salt and phosphorylated oligosaccharide calcium salt). The pH of the reaction mixture was continuously measured with a pH meter (manufactured by Toa Denpa) while being incubated at 37° C.

[5] = remineralization solution + 2 ppm F, supernatant

## chondroitin sulfate C [chondroitin sulfate C sodium salt]
[1]
  remineralization effect (FIG. 12): as good as or better than that of the phosphorylated oligosaccharide sodium salt

## F [F, fluorine]
[2]
  concentration at which sufficient efficacy is exerted (remineralization): about 2 ppm
[3]; demineralized bovine tooth pieces, remineralization solution + sample, 37° C., one week
  lesion depth (FIG. 2): the lesion depth was unchanged
[3]; [5]
  Ca (mM) of the post-remineralization solution: 0.73 mM
  Pi (mM) of the post-remineralization solution: 0.41 mM

## O=C[C@H](O)[C@@H](O)[C@H](O)[C@H](O)COP(=O)(O)O [glucose-6-phosphate]
[1]
  remineralization effect (FIG. 12): as good as or better than that of the phosphorylated oligosaccharide sodium salt

## OC[C@@H](O)[C@@H](O)[C@H](O)[C@@H](O)CO [sorbitol]
[1]; 20% addition group
  remineralization effect (FIG. 13): the remineralization effect as previously reported (as above) was confirmed

## O=C[C@H](O)[C@@H](O)[C@H](O)CO [xylose]
[1]; 37° C., 8 days
  remineralization percentage (FIG. 7B): low at any concentration

## OC[C@H]1O[C@H](OC[C@H]2OC(O)(CO)[C@@H](O)[C@@H]2O)[C@H](O)[C@@H](O)[C@@H]1O (stereo partly drawn) [palatinose, 6-O-α-D-Glucopyranosyl-D-Fructofuranose]
[1]; 20% addition group
  remineralization effect (FIG. 13): the remineralization effect as previously reported (as above) was confirmed
[4]
  sample concentration exhibiting a remineralization effect (FIGS. 7A to 7C): 20%

## dermatan sulfate
[1]; final concentration of 0.2%
  remineralization effect (FIG. 13): confirmed to have the remineralization effect

## palatinit
[4]
  sample concentration exhibiting a remineralization effect (FIGS. 7A to 7C): 20%

## OC[C@H]1O[C@@](CO)(O[C@H]2O[C@H](CO)[C@@H](O)[C@H](O)[C@H]2O)[C@@H](O)[C@@H]1O [sucrose]
S. mutans strain 8148
  pH of the reaction liquid: 4.0

## OC[C@@H](O)[C@H](O)[C@@H](O)CO [xylitol]
[1]; 20% addition group
  remineralization effect (FIG. 13): the remineralization effect as previously reported (as above) was confirmed
[1]; statement in the background referring to the Examples
  effect of xylitol (remineralization): not substantially confirmed
[4]
  sample concentration exhibiting a remineralization effect (FIGS. 7A to 7C): 20%
